Measurements as given in patent publication US7049444B2, “3-azabicyclo[3.1.0]hexane derivatives useful in therapy” (Pfizer Inc., priority 1998, dated 2006).
Structures can show the parent of a compound that is named as a salt.

Row | melting point [°C] | SMILES
1 | 159 to 161 | CC1(c2cccc(NS(C)(=O)=O)c2)C2CN(CCc3ccc(C(F)(F)F)cc3)CC21 (stereo not drawn)
2 | 212 to 214 | CC1(c2cccc(NS(C)(=O)=O)c2)C2CN(CCCc3ccccc3)CC21 (stereo not drawn) (as salt: hydrochloride)
3 | 117 to 118 | CC1(c2cccc(NS(C)(=O)=O)c2)C2CN(Cc3ccccc3)CC21 (stereo not drawn) [Example 22, N-[3-(3-Benzyl-6-methyl-3-azabicyclo[3.1.0]hex-6-yl)phenyl]methanesulfonamide]
4 | 162 to 164 | CC1(c2cccc(NS(C)(=O)=O)c2)C2CN(CCCc3ccccc3)CC21 (stereo not drawn) (as salt: tartrate)
5 | 182 to 184 | CC1(c2cccc(NS(C)(=O)=O)c2)C2CN(CCCc3ccccc3)CC21 (stereo not drawn) (as salt: toluenesulfonate)
6 | 166 to 168 | CC1(c2cccc(NS(C)(=O)=O)c2)C2CN(CCCc3ccccc3)CC21 (stereo not drawn) (as salt: benzenesulfonate)
